Data published in patent publication US8076487B2, “Pyridone derivative and herbicide” (Kumiai Chemical Industry Co., Ltd., priority 2006, dated 2011).

Experiments:
Type in all cases: in vivo
[1] = test system: barnyardgrass (Echinochloa crus-galli (L.) P. Beauv. var. crus-galli); test: Test Example 2: herbicidal effect by soil application to upland field; details: soil surface spray, upland field soil, 1,000 g active ingredient per hectare, 21st day after application
Outline: (§1)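 Seeds were sown in field soil, covered, and the soil surface sprayed with a water-diluted wettable powder at 1,000 g active ingredient per hectare in 1,000 L/ha. Plants grew in a greenhouse, and herbicidal effect was rated against a standard scale 21 days after application.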

[2] = test system: slender amaranth (Amaranthus viridis L.); test: as above; details: soil surface spray, upland field soil, 1,000 g active ingredient per hectare, 21st day after application
Outline: as §1

[3] = test system: velvetleaf (Abutilon theophrasti medicus); test: as above; details: soil surface spray, upland field soil, 1,000 g active ingredient per hectare, 21st day after application
Outline: as §1

[4] = test system: green foxtail (Setaria viridis (L.) P. Beauv.); test: as above; details: soil surface spray, upland field soil, 1,000 g active ingredient per hectare, 21st day after application
Outline: as §1

[5] = test system: heartshape false pickerelweed (Monochoria vaginalis (Burm.f.) C.Presl); test: Test Example 1: herbicidal effect by soil application to paddy field; details: paddy field soil application; active ingredient 1,000 g per 1 hectare; wettable powder added dropwise to water surface the day after sowing; examined on the 21st day after application
Outline: (§2)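 Under greenhouse conditions, seeds sown on puddled paddy soil in 100 cm2 pots under 3 cm of standing water received the test compound; injury was assessed with a standard scoring scheme three weeks (day 21) after treatment.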

[6] = test system: early watergrass (Echinochloa oryzicola Vasing); test: as above; details: paddy field soil application; active ingredient 1,000 g per 1 hectare; wettable powder added dropwise to water surface the day after sowing; examined on the 21st day after application
Outline: as §2

[7] = test system: Japanese bulrush (Scirpus juncoides Roxb.); test: as above; details: paddy field soil application; active ingredient 1,000 g per 1 hectare; wettable powder added dropwise to water surface the day after sowing; examined on the 21st day after application
Outline: as §2

[8] = test system: barnyardgrass (Echinochloa crus-galli (L.) P. Beauv. var. crus-galli); test: Test Example 3: herbicidal effect by application to upland field (foliage treatment); details: foliage treatment, 1,000 g active ingredient per 1 hectare, 14th day after application, greenhouse
Outline: (§3)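 Foliage treatment, greenhouse: 2-week-old plants in field soil; wettable powder in water sprayed over the top at 1,000 g a.i./ha (1,000 L/ha); rating on day 14 post-application.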

[9] = test system: slender amaranth (Amaranthus viridis L.); test: as above; details: foliage treatment, 1,000 g active ingredient per 1 hectare, 14th day after application, greenhouse
Outline: as §3

[10] = test system: velvetleaf (Abutilon theophrasti medicus); test: as above; details: foliage treatment, 1,000 g active ingredient per 1 hectare, 14th day after application, greenhouse
Outline: as §3

[11] = test system: green foxtail (Setaria viridis (L.) P. Beauv.); test: as above; details: foliage treatment, 1,000 g active ingredient per 1 hectare, 14th day after application, greenhouse
Outline: as §3

Structure (SMILES)	herbicidal effect (index), Barnyardgrass [1]	herbicidal effect (index), Slender Amaranth [2]	herbicidal effect (index), Velvetleaf [3]	herbicidal effect (index), Green Foxtail [4]	herbicidal effect, Monochoria vaginalis (Burm. f.) C. Presl [5]	herbicidal effect, Echinochloa oryzicola Vasing [6]	herbicidal effect, Scirpus juncoides Roxb. [7]	herbicidal effect, Barnyardgrass [8]	herbicidal effect, Slender Amaranth [9]	herbicidal effect, Velvetleaf [10]	herbicidal effect, Green Foxtail [11]
N#Cc1cccc(Cn2c(C(F)(F)F)ccc(C(=O)C3=C(O)CCCC3=O)c2=O)c1 [I-118]	5 (90% or more of herbicidal effect and crop phytotoxicity)	5 (90% or more of herbicidal effect and crop phytotoxicity)	5 (90% or more of herbicidal effect and crop phytotoxicity)	4 (70 to less than 90% of herbicidal effect and crop phytotoxicity)	5 (90% or more of herbicidal effect and crop phytotoxicity)	5 (90% or more of herbicidal effect and crop phytotoxicity)	5 (90% or more of herbicidal effect and crop phytotoxicity)	5 (90% or more of herbicidal effect and crop phytotoxicity)	5 (90% or more of herbicidal effect and crop phytotoxicity)	5 (90% or more of herbicidal effect and crop phytotoxicity)	5 (90% or more of herbicidal effect and crop phytotoxicity)
N#Cc1ccc(Cn2c(C(F)(F)F)ccc(C(=O)C3=C(O)CCCC3=O)c2=O)cc1 [I-119]	5 (90% or more of herbicidal effect and crop phytotoxicity)	5 (90% or more of herbicidal effect and crop phytotoxicity)	5 (90% or more of herbicidal effect and crop phytotoxicity)	5 (90% or more of herbicidal effect and crop phytotoxicity)	5 (90% or more of herbicidal effect and crop phytotoxicity)	5 (90% or more of herbicidal effect and crop phytotoxicity)	5 (90% or more of herbicidal effect and crop phytotoxicity)	5 (90% or more of herbicidal effect and crop phytotoxicity)	5 (90% or more of herbicidal effect and crop phytotoxicity)	5 (90% or more of herbicidal effect and crop phytotoxicity)	5 (90% or more of herbicidal effect and crop phytotoxicity)
CC1=NOC(Cn2c(C(F)(F)F)ccc(C(=O)C3=C(O)CCCC3=O)c2=O)C1 (centres unmarked) [I-126]	5 (90% or more of herbicidal effect and crop phytotoxicity)	5 (90% or more of herbicidal effect and crop phytotoxicity)	5 (90% or more of herbicidal effect and crop phytotoxicity)	5 (90% or more of herbicidal effect and crop phytotoxicity)	5 (90% or more of herbicidal effect and crop phytotoxicity)	5 (90% or more of herbicidal effect and crop phytotoxicity)	5 (90% or more of herbicidal effect and crop phytotoxicity)	5 (90% or more of herbicidal effect and crop phytotoxicity)	5 (90% or more of herbicidal effect and crop phytotoxicity)	5 (90% or more of herbicidal effect and crop phytotoxicity)	5 (90% or more of herbicidal effect and crop phytotoxicity)
Cc1cc(Cn2c(C(F)(F)F)ccc(C(=O)C3=C(O)CCCC3=O)c2=O)on1 [I-128]	5 (90% or more of herbicidal effect and crop phytotoxicity)	5 (90% or more of herbicidal effect and crop phytotoxicity)	5 (90% or more of herbicidal effect and crop phytotoxicity)	4 (70 to less than 90% of herbicidal effect and crop phytotoxicity)	5 (90% or more of herbicidal effect and crop phytotoxicity)	5 (90% or more of herbicidal effect and crop phytotoxicity)	5 (90% or more of herbicidal effect and crop phytotoxicity)	5 (90% or more of herbicidal effect and crop phytotoxicity)	5 (90% or more of herbicidal effect and crop phytotoxicity)	5 (90% or more of herbicidal effect and crop phytotoxicity)	4 (70 to less than 90% of herbicidal effect and crop phytotoxicity)
